Reference: ChEMBL document CHEMBL1201862, “PubChem BioAssay data set” (2004)
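Compound exposure: 48 hours, 5 concentrations, 96-well plates. Abbreviation: GI50, concentration required for 50% inhibition of growth.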 Calls of active or inactive are those of the source. Rule as the data show it: active = GI50 up to about 1.1 µM and inactive = higher.

Assays:
Experiment in all cases: growth of human tumour cells (NCI), 48 h
HCT-15 = system: HCT-15
OVCAR-4 = system: OVCAR-4
COLO 205 = system: COLO 205
MCF7 = system: MCF7
OVCAR-5 = system: OVCAR-5
SF-295 = system: SF-295
UACC-62 = system: UACC-62
UACC-257 = system: UACC-257
TK-10 = system: TK-10
SF-539 = system: SF-539
KM12 = system: KM12
ACHN = system: ACHN
K562 = system: K562
NCI-H226 = system: NCI-H226
SK-MEL-5 = system: SK-MEL-5
SN12C = system: SN12C
SR = system: SR
HCC 2998 = system: HCC 2998
DU-145 = system: DU-145
MDA-MB-435 = system: MDA-MB-435
NCI/ADR-RES = system: NCI/ADR-RES
PC-3 = system: PC-3
RXF 393 = system: RXF 393
Malme-3M = system: Malme-3M
LOX IMVI = system: LOX IMVI
NCI-H460 = system: NCI-H460
CCRF-CEM = system: CCRF-CEM
M14 = system: M14
EKVX = system: EKVX
SK-MEL-2 = system: SK-MEL-2
HL-60 = system: HL-60
U-251 = system: U-251
SF-268 = system: SF-268
BT-549 = system: BT-549
OVCAR-3 = system: OVCAR-3
CAKI-1 = system: CAKI-1
NCI-H23 = system: NCI-H23
SNB-19 = system: SNB-19
HOP-92 = system: HOP-92
IGROV-1 = system: IGROV-1
T47D = system: T47D
786-0 = system: 786-0
HOP-62 = system: HOP-62
MDA-N = system: MDA-N
OVCAR-8 = system: OVCAR-8
HCT-116 = system: HCT-116
NCI-H522 = system: NCI-H522
RPMI-8226 = system: RPMI-8226
HT-29 = system: HT-29
MOLT-4 = system: MOLT-4
SW-620 = system: SW-620
SK-MEL-28 = system: SK-MEL-28
SNB-75 = system: SNB-75
UO-31 = system: UO-31
A549 = system: A549
SK-OV-3 = system: SK-OV-3

Measured: GI50

Cc1ccc(/N=N/N(C)C(=O)C(C)N)cc1 (configuration not stated)
> 100 µM: HCT-15
inactive: OVCAR-4 > 100 µM | COLO 205 > 100 µM | MCF7 > 100 µM | OVCAR-5 > 100 µM | SF-295 > 100 µM | UACC-62 > 100 µM | UACC-257 > 100 µM | TK-10 > 100 µM | SF-539 > 100 µM | KM12 > 100 µM | ACHN > 100 µM | K562 > 100 µM | NCI-H226 > 100 µM | SK-MEL-5 > 100 µM | SN12C > 100 µM | SR 26.9 µM | HCC 2998 > 100 µM | DU-145 > 100 µM | MDA-MB-435 > 100 µM | NCI/ADR-RES > 100 µM | PC-3 > 100 µM | RXF 393 > 100 µM | Malme-3M > 100 µM | LOX IMVI > 100 µM | NCI-H460 > 100 µM | CCRF-CEM > 100 µM | M14 > 100 µM | EKVX > 100 µM | SK-MEL-2 > 100 µM | HL-60 > 100 µM | U-251 > 100 µM | SF-268 > 100 µM | BT-549 > 100 µM | OVCAR-3 > 100 µM | CAKI-1 > 100 µM | NCI-H23 > 100 µM | SNB-19 > 100 µM | HOP-92 > 100 µM | IGROV-1 > 100 µM | T47D > 100 µM | 786-0 > 100 µM | HOP-62 > 100 µM | MDA-N > 100 µM | OVCAR-8 > 100 µM | HCT-116 > 100 µM | NCI-H522 60.1 µM | RPMI-8226 16.1 µM | HT-29 > 100 µM | MOLT-4 > 100 µM | SW-620 8.53 µM | SK-MEL-28 > 100 µM | SNB-75 > 100 µM | UO-31 34.4 µM

O=c1c2cc(I)ccc2nc(-c2cccs2)n1/N=C/c1ccccc1
inactive: OVCAR-4 > 100 µM | COLO 205 > 100 µM | MCF7 > 100 µM | OVCAR-5 > 100 µM | SF-295 > 100 µM | UACC-62 > 100 µM | UACC-257 79.1 µM | TK-10 > 100 µM | SF-539 > 100 µM | KM12 > 100 µM | ACHN > 100 µM | K562 7.18 µM | NCI-H226 > 100 µM | SK-MEL-5 > 100 µM | SN12C > 100 µM | SR 10.1 µM | HCC 2998 > 100 µM | DU-145 > 100 µM | MDA-MB-435 > 100 µM | NCI/ADR-RES > 100 µM | PC-3 > 100 µM | RXF 393 > 100 µM | LOX IMVI > 100 µM | A549 > 100 µM | NCI-H460 > 100 µM | CCRF-CEM > 100 µM | M14 > 100 µM | EKVX > 100 µM | HL-60 > 100 µM | U-251 > 100 µM | SF-268 > 100 µM | BT-549 > 100 µM | SK-OV-3 > 100 µM | OVCAR-3 > 100 µM | CAKI-1 > 100 µM | NCI-H23 > 100 µM | SNB-19 > 100 µM | HOP-92 > 100 µM | IGROV-1 > 100 µM | T47D 80.5 µM | 786-0 > 100 µM | HOP-62 > 100 µM | OVCAR-8 > 100 µM | HCT-116 > 100 µM | NCI-H522 > 100 µM | RPMI-8226 > 100 µM | HT-29 > 100 µM | SW-620 > 100 µM | SK-MEL-28 > 100 µM | SNB-75 > 100 µM | UO-31 > 100 µM
active: SK-MEL-2 0.536 µM
> 100 µM: HCT-15
